Values of other authors in patent US20030099599A1, “Antibiotic spray” (priority 2001, published 2003).

Test system: group A streptococcal tonsillopharyngitis
Conditions: recurrence within 2 months

**Q.** With penicillin as the substance, how does the “GAS tonsillopharyngitis treated with penicillin that recurs” value read?
**A.** The value was “About 25%”.
